# US20250032499A1, “METHODS OF TREATING PERIPHERAL T-CELL LYMPHOMA” (Secura Bio, Inc., priority 2021, published 2025)
# How the values were obtained:
# [1] = system: patients with relapsed or refractory peripheral T-cell lymphoma (R/R PTCL); assay: Expansion phase (PRIMO-EP) of the trial in R/R PTCL: duvelisib 75 mg BID for 2 cycles, then 25 mg BID; format: in vivo, human; details: for AESI Cutaneous reactions, % / AESI Diarrhea, % / AESI Infections, % / AESI Neutropenia/neutrophil count decreased, % / AESI Pneumonia, % / AESI Pneumonitis, % / AESI Transaminase elevation, % / AESI Colitis, %: all grades
# Description: An expansion phase of the above trial described in Example 1 was carried out. Based on the dose optimization results, patients in the expansion phase received duvelisib at 75 mg BID for 2 cycles to maximize rapid tumor control, followed by 25 mg BID to maintain long-term disease control and mitigate late toxicities, until progressive disease (PD) or unacceptable toxicity. The primary endpoint was the overall response rates (ORR) as assessed by the Independent Review Committee (IRC), and secondary endpoints included ORR by INV assessment, duration of response (DOR), progression free survival (PFS), overall survival (OS), disease control rate (DCR), and safety. […] Analysis was performed on data collected from a total of 101 patients with a median follow-up of 8.7 months from time of first response. All patients had pathologically confirmed PTCL (WHO criteria) with a CD4 lymphocyte count of ≥50/mm^3 and received ≥2 cycles of ≥1 prior standard regimen. Prior treatments received included CHOP/R-CHOP, CHOEP/EPOCH, or BV/BV-chemo (all 36.60% r), salvage chemo after CHOP/R-CHOP or CHOEP/EPOCH (37.60), and SCT (21.80). The mean treatment duration was 17.1 weeks, and the median (range) treatment duration was 9.0 (1-79) weeks. Exposure by treatment duration included 43.6% (≤2 cycles), 23.8% (>2-4 cycles), and […] (>4 cycles). The ORR by IRC was […]. In patients with ≥3 prior lines, the ORR was maintained (49.10%).
# [2] = system: patients with relapsed or refractory peripheral T-cell lymphoma (R/R PTCL); assay: Phase 2 open-label parallel cohort trial of duvelisib in R/R PTCL, dose-optimization phase (25 mg BID vs 75 mg BID); format: in vivo, human; details: for overall response rate (ORR): 28-day cycles, oral
# Description: Prior to the present disclosure, Applicant ran a clinical trial using duvelisib to treat PTCL. The trial included two cohorts. In cohort 1, subjects were orally administered duvelisib at a starting dose of 25 mg twice daily (BID), with potential escalation on a per-patient basis to 50 mg BID and then 75 mg BID, based on the patient's response to and tolerance of therapy. Doses were administered in 28-day cycles. In cohort 2, subjects were orally administered 75 mg duvelisib BID, in 28-day cycles. The overall response rate (ORR) in the 75 mg BID cohort was 54% ORR.
# A phase 2, open-label, multi-center, parallel cohort trial of duvelisib in R/R PTCL was carried out. Patients were treated with duvelisib for two 28-day cycles with either 25 mg BID (DUV25) or 75 mg BID (DUV75). Patients with pathologically confirmed R/R PTCL (WHO criteria) after ≥2 cycles of ≥1 prior standard regimen, and a CD4 lymphocyte count of ≥50/mm^3 were eligible for enrollment in the study.
# [3] = Prior Salvage Chemotherapy CHOP/R-CHOP or CHOEP/EPOCH
# [4] = all causality, 1 prior regimen (N = 26)
# [5] = all causality, 2 prior regimens (N = 22)
# [6] = all causality, 3+ prior regimens (N = 53)
# [7] = all causality, Tx Duration >2-4 cycles (N = 56)
# [8] = all causality, Tx Duration >4 cycles (N = 31)
# [9] = all causality, Tx Duration ≤2 cycles (N = 101)
compound,measurement,setting,value
"C[C@H](Nc1ncnc2[nH]cnc12)c1cc2cccc(Cl)c2c(=O)n1-c1ccccc1 [duvelisib, (S)-3-(1-((9H-purin-6-yl)amino)ethyl)-8-chloro-2-phenylisoquinolin-1(2H)-one]",Response (CR + PR) by number of prior regimens,[1]; 1 prior regimen (n = 26),34.6%
same,Response (CR + PR) by number of prior regimens,[1]; 2 prior regimens (n = 22),63.6%
same,Response (CR + PR) by number of prior regimens,[1]; 3+ prior regimens (n = 53),49.1%
same,TEAEs leading to dose hold,[1]; % of patients,37.6%
same,TEAEs leading to dose reduction,[1]; % of patients,3.0%
same,diarrhea,"[1]; AE, all causality, maximum GR3",7.9%
same,increased alanine aminotransferase (ALT),"[1]; AE, all causality, maximum GR3",14.9%
same,increased aspartate aminotransferase (AST),"[1]; AE, all causality, maximum GR3",13.4%
same,neutropenia,"[1]; AE, all causality, maximum GR3",13.8%
same,rash maculo-papular,"[1]; AE, all causality, maximum GR3",7.9%
same,increased ALT,"[1]; AE, all causality, maximum GR4",5.9%
same,Median (range) PFS,[1]; N = 101,3.62 (0.03+-17.2+) months
same,deaths in TEAEs other than PD (total),[1]; N = 101,8
same,BOR by prior therapy: CR,[1]; Prior BV or BV-chemo,32.4 % of subgroup
same,BOR by prior therapy: PR,[1]; Prior BV or BV-chemo,10.8 % of subgroup
same,BOR by prior therapy: SD,[1]; Prior BV or BV-chemo,0 % of subgroup
same,BOR by prior therapy: CR,[1]; Prior CHOEP/EPOCH,27.0 % of subgroup
same,BOR by prior therapy: PR,[1]; Prior CHOEP/EPOCH,27.0 % of subgroup
same,BOR by prior therapy: SD,[1]; Prior CHOEP/EPOCH,0 % of subgroup
same,BOR by prior therapy: CR,[1]; Prior CHOP/R-CHOP,37.8 % of subgroup
same,BOR by prior therapy: PR,[1]; Prior CHOP/R-CHOP,5.4 % of subgroup
same,BOR by prior therapy: SD,[1]; Prior CHOP/R-CHOP,2.7 % of subgroup
same,BOR by prior therapy: CR,[1]; Prior SCT,22.7 % of subgroup
same,BOR by prior therapy: PR,[1]; Prior SCT,27.3 % of subgroup
same,BOR by prior therapy: SD,[1]; Prior SCT,0 % of subgroup
same,BOR by prior therapy: CR,[1]; [3],44.7 % of subgroup
same,BOR by prior therapy: PR,[1]; [3],7.9 % of subgroup
same,BOR by prior therapy: SD,[1]; [3],0 % of subgroup
same,"AESI Cutaneous reactions, %",[1]; [4],(38.5) %
same,"AESI Diarrhea, %",[1]; [4],(15.4) %
same,"AESI Infections, %",[1]; [4],(30.8) %
same,"AESI Neutropenia/neutrophil count decreased, %",[1]; [4],(38.5) %
same,"AESI Pneumonia, %",[1]; [4],(3.8) %
same,"AESI Pneumonitis, %",[1]; [4],(3.8) %
same,"AESI Transaminase elevation, %",[1]; [4],(65.4) %
same,"AESI Cutaneous reactions, %",[1]; [5],(54.5) %
same,"AESI Diarrhea, %",[1]; [5],(27.3) %
same,"AESI Infections, %",[1]; [5],(31.8) %
same,"AESI Neutropenia/neutrophil count decreased, %",[1]; [5],(27.3) %
same,"AESI Transaminase elevation, %",[1]; [5],(40.9) %
same,"AESI Colitis, %",[1]; [6],(1.9) %
same,"AESI Cutaneous reactions, %",[1]; [6],(24.5) %
same,"AESI Diarrhea, %",[1]; [6],(39.6) %
same,"AESI Infections, %",[1]; [6],(49.1) %
same,"AESI Neutropenia/neutrophil count decreased, %",[1]; [6],(32.1) %
same,"AESI Pneumonia, %",[1]; [6],(3.8) %
same,"AESI Pneumonitis, %",[1]; [6],(1.9) %
same,"AESI Transaminase elevation, %",[1]; [6],(34.0) %
same,"AESI Cutaneous reactions, %",[1]; [7],(28.6) %
same,"AESI Diarrhea, %",[1]; [7],(14.3) %
same,"AESI Infections, %",[1]; [7],(16.1) %
same,"AESI Neutropenia/neutrophil count decreased, %",[1]; [7],(14.3) %
same,"AESI Pneumonitis, %",[1]; [7],(1.8) %
same,"AESI Transaminase elevation, %",[1]; [7],(30.4) %
same,"AESI Colitis, %",[1]; [8],(3.2) %
same,"AESI Cutaneous reactions, %",[1]; [8],(22.6) %
same,"AESI Diarrhea, %",[1]; [8],(22.6) %
same,"AESI Infections, %",[1]; [8],(32.3) %
same,"AESI Neutropenia/neutrophil count decreased, %",[1]; [8],(25.8) %
same,"AESI Pneumonia, %",[1]; [8],(3.2) %
same,"AESI Cutaneous reactions, %",[1]; [9],(19.8) %
same,"AESI Diarrhea, %",[1]; [9],(19.8) %
same,"AESI Infections, %",[1]; [9],(26.7) %
same,"AESI Neutropenia/neutrophil count decreased, %",[1]; [9],(28.7) %
same,"AESI Pneumonia, %",[1]; [9],(2.0) %
same,"AESI Pneumonitis, %",[1]; [9],(1.0) %
same,response rates regardless of number of prior regimens,[1]; all prior-regimen subgroups,≥ 35%
same,Median duration of response,[1]; all responders,7.7 months
same,increase of rate of cutaneous reactions,[1]; from Cycle ≤2 to Cycle >4,2.8%
same,increase of rate of diarrhea,[1]; from Cycle ≤2 to Cycle >4,2.8%
same,increase of rate of infections,[1]; from Cycle ≤2 to Cycle >4,5.6%
same,tolerability,[1]; interim results of the expansion phase,well tolerated
same,"Incidence of pneumonia, pneumonitis, and colitis","[1]; regardless of treatment duration, Cycle ≤2 to Cycle >4",0-3.2%
same,Median duration of response,[1]; those in CR,7.4 months
same,overall response rate (ORR),[2]; 25 mg BID cohort (N=20),35%
same,"patients with disease progression, 25 mg BID cohort compared to 75 mg BID",[2]; 25 mg BID cohort vs 75 mg BID cohort,three times as many patients experienced disease progression
same,overall response rate (ORR),[2]; 75 mg BID cohort (N=13),54%
same,Discontinuations due to AEs,"[2]; DUV25, 25 mg BID",30%
same,TEAEs leading to discontinuation,"[2]; DUV25, 25 mg BID","disease progression, pneumonitis (2 patients each), cardiac arrest, hypercalcemia, hyperglycemia, pneumonia, rash maculopapular, and respiratory failure (1 each)"
same,fatal AEs (number),"[2]; DUV25, 25 mg BID",5
same,Serious TEAEs occurred in,"[2]; DUV25, 25 mg BID (n=15/20)",75%
same,Discontinuations due to AEs,"[2]; DUV75, 75 mg BID",8%
same,TEAEs leading to discontinuation,"[2]; DUV75, 75 mg BID","disease progression, infectious colitis, and sepsis (1 each)"
same,fatal AEs (number),"[2]; DUV75, 75 mg BID (disease progression)",1
same,Serious TEAEs occurred in,"[2]; DUV75, 75 mg BID (n=9/13)",69%
same,manageability of most TEAEs,[2]; both cohorts,manageable with dose reductions and dose holds
same,Serious TEAEs in ≥2 patients,[2]; both cohorts (N=33),"colitis, diarrhea, abdominal pain, pyrexia, PD, sepsis, pneumonia, hyponatremia, rash maculopapular, dyspnea, and respiratory failure"
